Values quoted from earlier work in paper PMC11435065, “Inhibition of P-Glycoprotein Asymmetrically Alters the In Vivo Exposure Profile of SGC003F: A Novel Guanylate Cyclase Stimulator” (Pharmaceuticals, 2024).

Design: method as in PMID 24398461
Details: rats, one hour after administration, with 1.0 mg/kg tariquidar; cited from earlier work

SMILES: CN(C)C(=O)C(CCN1CCC(O)(c2ccc(Cl)cc2)CC1)(c1ccccc1)c1ccccc1 [loperamide]
- Increase of loperamide levels in the brain: 2.3 fold
